{"source": "patent US20090117200A1", "about": "“Fungicide Composition Comprising a Phosphorous Acid Derivative, a Mandelamide Type Compound and a Further Fungicide Compound” (priority 2005, published 2009)", "key": {"[1]": {"tested_on": "Plasmopara viticola", "experiment": "Example 3: preventive 72 h application on vine downy mildew, phosphorous acid / mandipropamid / folpet, TAMMES analysis", "assay_type": "in vivo", "experimental": "(§1) Vine plants (variety Cabernet Sauvignon) were grown in a sandy soil in plastic pots with a single plant per pot.\nThe following ratio was tested: phosphorous acid (A)/mandipropamid (B)/folpet (C) respectively: 1,500 g a.i./ha+75 g a.i./ha+750 g a.i./ha (ratio 20/1/10).\nThe dose range tested for phosphorous acid equivalent (329 g/kg) was: 3,000 g a.i./ha, 1,500 g a.i./ha, 1,000 g a.i./ha, 750 g a.i./ha, 500 g a.i./ha, 250 g a.i./ha, 80 g a.i./ha, 40 g a.i./ha, 20 g a.i./ha, 10 g a.i./ha, 2 g a.i./ha and 0.2 g a.i./ha.\nThe dose range for mandipropamid+folpet was: 75+750 g a.i./ha, 4+40 g a.i./ha, 2+20 g a.i./ha, 1+10 g a.i./ha, 0.5+5 g a.i./ha, 0.1+1 g a.i./ha and 0.01+0.1 g a.i./ha.\nFor the ternary mixture phosphorous acid equivalent+mandipropamid+folpet, the dose range studied was: 1,500+75+750 g a.i./ha, 80+4+40 g a.i./ha, 40+2+20 g a.i./ha, 20+1+10 g a.i./ha, 10+0.5+5 g a.i./ha, 2+0.1+1 g a.i./ha and 0.2+0.01+0.1 g a.i./ha.\n(§2) Four days before treatment, phosphorous acid was applied at 1,500 g a.i./ha on plants planned to be treated later with phosphorous acid based product alone or in mixture.\n(§3) A three days interval separated treatment and inoculation. Three days after the treatment, each plant was inoculated by spraying an aqueous suspension of sporangia of Plasmopara viticola obtained from infected leaves and sensitive to all the tested compounds. The concentration of sporangia was about 100,000 units per ml.\n(§4) After contamination the plants were incubated for 7 days at 22° C. in a saturated atmosphere. Seven days after contamination, symptoms were evaluated in terms of the extent of the lower surface of the leaves infected, in comparison with untreated (UTC) but contamined plants.\n(§5) The efficacy of the treatment was calculated using the Abbott formula:\n(§6) efficacy=(untreated−treated/untreated)×100\n(§7) The concentrations of the fungicide active substances alone or in mixture giving % efficacy for each component were determined based on the sigmoid curve dose/response model with their confidence intervals. The analysis of the results was made according to the TAMMES model (Isoboles, a graphic representation of synergism in pesticides, Neth. J. Plant Path. 70 (1964): 73-80)."}, "[2]": {"tested_on": "Plasmopara viticola", "experiment": "Example 4: preventive 72 h application on vine downy mildew, phosphorous acid / mandipropamid / mefenoxam, TAMMES analysis", "assay_type": "in vivo", "experimental": "as §1, §2, §3, §4, §5, §6, §7"}, "[3]": {"conditions": "sum of the components, or dose of the single compound, vine, preventive 72 h"}}, "data": [{"smiles": "OP(O)O", "note": "[phosphorous acid]", "values": [{"measurement": "ED70", "setting": "[1]; Table 2 of Example 3: calculated according to efficacy observed, 70% of disease control", "result": 6.2, "unit": "g a.i./ha"}, {"measurement": "ED90", "setting": "[1]; Table 2 of Example 3: calculated according to efficacy observed, 90% of disease control", "result": 145, "unit": "g a.i./ha"}, {"measurement": "Practical dose for 70% efficacy, total", "setting": "[1]; [3]", "result": 6.2, "unit": "g a.i./ha"}, {"measurement": "Practical dose for 90% efficacy, total", "setting": "[1]; [3]", "result": 145, "unit": "g a.i./ha"}, {"measurement": "ED70", "setting": "[2]; Table 2 of Example 4: practical 70% of disease control observed", "result": 650, "unit": "g a.i./ha"}, {"measurement": "ED90", "setting": "[2]; Table 2 of Example 4: practical 90% of disease control observed", "result": "1,500 g a.i./ha"}]}]}
